Tests used:
[1] = target: T1, cloned human m1 muscarinic receptor (Homo sapiens, UniProt P11229); test: Muscarinic binding activity (3H-QNB displacement), m1; settings: Ki m1, membranes of transfected CHO cells
T1 sequence (P11229 1-460): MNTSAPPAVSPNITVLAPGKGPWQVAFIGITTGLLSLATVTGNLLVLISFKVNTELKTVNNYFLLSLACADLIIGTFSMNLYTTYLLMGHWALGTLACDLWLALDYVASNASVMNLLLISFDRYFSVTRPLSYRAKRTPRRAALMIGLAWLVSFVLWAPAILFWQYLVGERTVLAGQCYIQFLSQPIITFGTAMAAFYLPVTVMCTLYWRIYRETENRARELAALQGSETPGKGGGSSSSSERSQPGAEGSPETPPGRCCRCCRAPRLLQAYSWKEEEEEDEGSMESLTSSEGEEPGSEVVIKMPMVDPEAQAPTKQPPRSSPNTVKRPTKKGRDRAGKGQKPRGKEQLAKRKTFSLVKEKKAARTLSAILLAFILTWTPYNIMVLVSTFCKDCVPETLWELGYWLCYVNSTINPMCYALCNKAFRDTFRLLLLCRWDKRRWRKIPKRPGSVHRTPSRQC

[2] = target: T2, cloned human m2 muscarinic receptor (Homo sapiens, UniProt P08172); test: Muscarinic binding activity (3H-QNB displacement), m2; settings: Ki m2, membranes of transfected CHO cells
T2 sequence (P08172 1-466): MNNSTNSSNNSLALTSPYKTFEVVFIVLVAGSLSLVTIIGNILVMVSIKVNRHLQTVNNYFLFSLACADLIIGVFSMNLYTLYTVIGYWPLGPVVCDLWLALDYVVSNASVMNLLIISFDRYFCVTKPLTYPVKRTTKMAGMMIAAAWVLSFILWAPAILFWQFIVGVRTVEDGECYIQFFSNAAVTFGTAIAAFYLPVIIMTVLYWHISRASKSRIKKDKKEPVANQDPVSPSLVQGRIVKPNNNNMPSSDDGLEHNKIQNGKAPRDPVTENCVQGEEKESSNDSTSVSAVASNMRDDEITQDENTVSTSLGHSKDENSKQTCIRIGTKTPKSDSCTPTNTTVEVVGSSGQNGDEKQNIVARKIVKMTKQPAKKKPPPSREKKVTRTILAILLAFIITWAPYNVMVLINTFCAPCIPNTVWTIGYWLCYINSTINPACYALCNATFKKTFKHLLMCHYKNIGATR

[3] = target: T3, cloned human m4 muscarinic receptor (Homo sapiens, UniProt P08173); test: Muscarinic binding activity (3H-QNB displacement), m4; settings: Ki m4, membranes of transfected CHO cells
T3 sequence (P08173 1-479): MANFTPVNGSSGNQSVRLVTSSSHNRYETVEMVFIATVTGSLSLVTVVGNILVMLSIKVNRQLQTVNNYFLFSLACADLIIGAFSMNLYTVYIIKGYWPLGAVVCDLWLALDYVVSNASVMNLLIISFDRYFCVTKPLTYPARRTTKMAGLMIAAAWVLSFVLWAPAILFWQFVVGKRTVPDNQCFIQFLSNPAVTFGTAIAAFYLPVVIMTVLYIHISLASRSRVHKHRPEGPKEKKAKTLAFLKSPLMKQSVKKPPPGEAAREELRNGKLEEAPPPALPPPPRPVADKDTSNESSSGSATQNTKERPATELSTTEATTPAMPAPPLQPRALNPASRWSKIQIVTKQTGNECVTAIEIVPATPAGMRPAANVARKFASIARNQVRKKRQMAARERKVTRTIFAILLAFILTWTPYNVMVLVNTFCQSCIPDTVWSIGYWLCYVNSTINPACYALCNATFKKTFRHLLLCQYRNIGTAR

[4] = system: Release of Acetyl Choline (ACh) from Striatum; test: Microdialysis: release of acetylcholine from striatum of conscious rats; type: in vivo, male Sprague-Dawley Rats; settings: 10 mg/kg peritoneal, 3 rats, Isomer B
Method: The skull was exposed and drilled through to the dura at a point 0.2 mm anterior and 3.0 mm lateral to the bregma. At these coordinates, a guide cannula was positioned at the outer edge of the dura through the drilled opening, lowered perpendicularly to a depth of 2.5 mm, and permanently secured with dental cement to bone screws. Following the surgery, rats were given ampicillin (40 mg/kg, ip) and individually housed in modified cages. A recovery period of approximately 3 to 7 days was allowed before the microdialysis procedure was undertaken. • Microdialysis: All of the equipment and instrumentation used to conduct in vivo microdialysis was obtained from Bioanalytical Systems, Inc. (BAS). The microdialysis procedure required the insertion through the guide cannula of a thin, needle-like perfusable probe (CMA/12.3 mm x 0.5 mm) to a depth of 3 mm in striatum beyond the end of the guide. The probe was connected beforehand with tubing to a microinjection pump (CMA-/100). Rats were collared and tethered, and, following probe insertion, were placed in a large clear plexiglass bowl with litter material and access to food and water. The probe was perfused at 2 µl/min with Ringer's buffer (NaCl 147 mM; KCI 3.0 mM; CaCl2 1.2 mM; MgCl2 1.0 mM) containing 5.5 mM glucose, 0.2 mM L-ascorbate, and 1 µM neostigmine bromide at pH 7.4. To achieve stable baseline readings, microdialysis was allowed to proceed for 90 minutes prior to the collection of fractions. Fractions (20 µl) were obtained at 10-minute intervals over a 3-hour period using a refrigerated collector (CMA/170 or 200). Following the collection of four to five baseline fractions, the drug or combination of drugs to be tested was administered to the animal. Once collection was complete, each rat was autopsied to determine how accurately the probe was placed. • Acetylcholine (ACh) analysis: The concentration of ACh in collected samples of microdialysate was determined using HPLC/electrochemical detection. Samples were auto-injected (Waters 712 Refrigerated Sample Processor) onto a polymeric analytical HPLC column (BAS, MF-6150) and eluted with 50 mM Na2HPO4, pH 8.5. To prevent bacterial growth, Kathon CG reagent (0.005%) (BAS) was included in the mobile phase. Eluate from the analytical column, containing separated ACh and choline, was then immediately passed through an immobilized enzyme reactor cartridge (BAS, MF-6151) coupled to the column outlet. The reactor contained both acetylcholinesterase and choline oxidase covalently bound to a polymeric backbone. […] Data acquisition was carried out using an IBM Model 70 computer equipped with a microchannel IEEE board. Integration and quantification of peaks were accomplished using "Maxima" chromatography software (Waters Corporation). Total run time per sample was 11 minutes at a flow rate of 1 ml/min. Retention times for acetylcholine and choline were 6.5 and 7.8 minutes respectively. To monitor and correct for possible changes in detector sensitivity during chromatography, ACh standards were included at the beginning, middle and end of each sample queue.
Increases in ACh levels are consistent with presynaptic m2 receptor antagonism.

Compound: COc1ccc(S(=O)(=O)c2ccc3c(c2)CCC3N2CCN(C3CCCCC3)C[C@H]2C)cc1 (single isomer, unassigned) [Compound 15]
- Ki [1]: 1.23 nM
- Ki [2]: 0.11 nM
- Ki [3]: 0.27 nM
- Mean % of baseline ([4]; sample collection time 20 min (control, first baseline, before injection)): 98.61 % of baseline
- Mean % of baseline ([4]; sample collection time 30 min (control, second baseline, before injection)): 93.87 % of baseline
- Mean % of baseline ([4]; sample collection time 40 min (control, third baseline, before injection)): 102.42 % of baseline
- Mean % of baseline ([4]; sample collection time 50 min (compounds injected at 50 minutes)): 103.86 % of baseline
- Mean % of baseline ([4]; sample collection time 60 min, injected at 50 min): 102.14 % of baseline
- Mean % of baseline ([4]; sample collection time 70 min, injected at 50 min): 175.31 % of baseline
- Mean % of baseline ([4]; sample collection time 80 min, injected at 50 min): 278.67 % of baseline
- Mean % of baseline ([4]; sample collection time 90 min, injected at 50 min): 266.94 % of baseline
- Mean % of baseline ([4]; sample collection time 100 min, injected at 50 min): 245.19 % of baseline
- Mean % of baseline ([4]; sample collection time 110 min, injected at 50 min): 217.34 % of baseline
- Mean % of baseline ([4]; sample collection time 120 min, injected at 50 min): 222.39 % of baseline
- Mean % of baseline ([4]; sample collection time 130 min, injected at 50 min): 205.69 % of baseline
- Mean % of baseline ([4]; sample collection time 140 min, injected at 50 min): 188.49 % of baseline
- Mean % of baseline ([4]; sample collection time 150 min, injected at 50 min): 189.79 % of baseline
- Mean % of baseline ([4]; sample collection time 160 min, injected at 50 min): 184.27 % of baseline
- Mean % of baseline ([4]; sample collection time 170 min, injected at 50 min): 189.27 % of baseline
- Mean % of baseline ([4]; sample collection time 180 min, injected at 50 min): 189.86 % of baseline

— patent EP0912534B1, “MUSCARINIC ANTAGONISTS” (SCHERING CORPORATION, priority 1996, dated 1998)
